Laboratory results taken from doi:10.1101/2020.07.01.182642v1 (biorxiv, 2020).

Assays:
Details in all cases: binder
BMX = target: T1, BMX (Homo sapiens, UniProt P51813)
T1 sequence (P51813 1-675): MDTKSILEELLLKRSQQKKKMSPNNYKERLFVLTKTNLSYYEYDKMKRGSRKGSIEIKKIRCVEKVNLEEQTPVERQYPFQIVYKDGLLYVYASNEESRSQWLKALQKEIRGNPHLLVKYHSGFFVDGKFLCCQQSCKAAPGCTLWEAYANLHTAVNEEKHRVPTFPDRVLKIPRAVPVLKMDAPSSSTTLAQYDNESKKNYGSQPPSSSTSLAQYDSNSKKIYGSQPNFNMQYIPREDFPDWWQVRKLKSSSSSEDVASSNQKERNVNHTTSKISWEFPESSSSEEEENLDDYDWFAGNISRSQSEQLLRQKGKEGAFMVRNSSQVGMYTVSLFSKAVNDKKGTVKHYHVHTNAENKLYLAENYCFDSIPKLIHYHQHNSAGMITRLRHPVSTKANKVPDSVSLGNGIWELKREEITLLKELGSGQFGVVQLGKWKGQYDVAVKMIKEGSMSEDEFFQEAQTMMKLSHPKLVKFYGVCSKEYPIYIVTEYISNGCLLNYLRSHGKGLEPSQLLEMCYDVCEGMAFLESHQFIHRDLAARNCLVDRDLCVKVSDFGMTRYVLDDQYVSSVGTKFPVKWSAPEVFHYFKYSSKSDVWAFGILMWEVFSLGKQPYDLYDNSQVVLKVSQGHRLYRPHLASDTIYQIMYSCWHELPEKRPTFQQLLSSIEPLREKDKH

SRPK3 = SRPK3 (Homo sapiens, UniProt Q9UPE1)
PIM3 = PIM3 (Homo sapiens, UniProt Q86V86)
PIM2 = PIM2 (Homo sapiens, UniProt Q9P1W9)
PHKG2 = target: T2, PHKG2 (Homo sapiens, UniProt P15735)
T2 sequence (P15735 1-406): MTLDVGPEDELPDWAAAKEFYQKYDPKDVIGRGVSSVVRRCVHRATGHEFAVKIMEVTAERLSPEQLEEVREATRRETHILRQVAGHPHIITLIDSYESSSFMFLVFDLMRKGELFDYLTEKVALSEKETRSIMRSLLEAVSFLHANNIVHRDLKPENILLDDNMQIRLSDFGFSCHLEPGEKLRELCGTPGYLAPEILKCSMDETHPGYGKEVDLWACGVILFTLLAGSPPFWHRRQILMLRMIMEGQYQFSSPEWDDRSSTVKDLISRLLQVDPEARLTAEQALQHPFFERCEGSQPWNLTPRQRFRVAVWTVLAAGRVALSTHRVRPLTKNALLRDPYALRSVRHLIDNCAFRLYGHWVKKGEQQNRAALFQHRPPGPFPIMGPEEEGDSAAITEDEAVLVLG

MAP2K2 = MAP2K2 (Homo sapiens, UniProt P36507)
STK16 = STK16 (Homo sapiens, UniProt O75716)
SLK = SLK (Homo sapiens, UniProt Q9H2G2)
CSNK2A2 = CSNK2A2 (Homo sapiens, UniProt P19784)
PKMYT1 = target: T3, PKMYT1 (Homo sapiens, UniProt Q99640)
T3 sequence (Q99640 1-499): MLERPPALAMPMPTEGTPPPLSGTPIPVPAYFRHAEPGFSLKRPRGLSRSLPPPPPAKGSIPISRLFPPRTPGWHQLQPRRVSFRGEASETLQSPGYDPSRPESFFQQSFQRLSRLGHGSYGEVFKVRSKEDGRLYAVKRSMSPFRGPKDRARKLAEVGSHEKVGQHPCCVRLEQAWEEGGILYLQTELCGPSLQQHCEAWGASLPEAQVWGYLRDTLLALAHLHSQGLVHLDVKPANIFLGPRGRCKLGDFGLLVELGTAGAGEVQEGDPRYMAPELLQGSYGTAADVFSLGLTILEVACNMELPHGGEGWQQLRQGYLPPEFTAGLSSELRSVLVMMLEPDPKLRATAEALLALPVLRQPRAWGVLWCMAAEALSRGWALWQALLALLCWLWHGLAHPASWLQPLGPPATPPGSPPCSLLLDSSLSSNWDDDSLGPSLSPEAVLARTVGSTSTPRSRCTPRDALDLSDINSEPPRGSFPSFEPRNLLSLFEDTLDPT

PAK4 = PAK4 (Homo sapiens, UniProt O96013)
STK10 = STK10 (Homo sapiens, UniProt O94804)
CSNK1G1 = CSNK1G1 (Homo sapiens, UniProt Q9HCP0)
STK38L = STK38L (Homo sapiens, UniProt Q9Y2H1)
CAMK1G = CAMK1G (Homo sapiens, UniProt Q96NX5)
STK33 = STK33 (Homo sapiens, UniProt Q9BYT3)
Sequence of STK33 (Q9BYT3 whole entry): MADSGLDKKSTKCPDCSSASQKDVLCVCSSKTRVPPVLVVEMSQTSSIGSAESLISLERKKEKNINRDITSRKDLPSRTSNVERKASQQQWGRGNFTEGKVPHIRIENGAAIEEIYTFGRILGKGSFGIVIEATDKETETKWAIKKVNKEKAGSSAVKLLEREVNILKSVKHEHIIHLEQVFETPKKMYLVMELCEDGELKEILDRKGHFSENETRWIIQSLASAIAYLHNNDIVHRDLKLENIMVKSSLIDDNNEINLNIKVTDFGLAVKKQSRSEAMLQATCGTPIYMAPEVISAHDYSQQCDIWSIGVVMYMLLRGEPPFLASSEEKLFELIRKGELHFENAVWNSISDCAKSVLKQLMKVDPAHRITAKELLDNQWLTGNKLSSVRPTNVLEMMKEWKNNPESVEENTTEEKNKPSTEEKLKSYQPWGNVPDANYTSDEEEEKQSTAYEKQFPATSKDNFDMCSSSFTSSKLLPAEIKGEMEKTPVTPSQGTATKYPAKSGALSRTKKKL

Sequence of CSNK1G1 (Q9HCP0 whole entry): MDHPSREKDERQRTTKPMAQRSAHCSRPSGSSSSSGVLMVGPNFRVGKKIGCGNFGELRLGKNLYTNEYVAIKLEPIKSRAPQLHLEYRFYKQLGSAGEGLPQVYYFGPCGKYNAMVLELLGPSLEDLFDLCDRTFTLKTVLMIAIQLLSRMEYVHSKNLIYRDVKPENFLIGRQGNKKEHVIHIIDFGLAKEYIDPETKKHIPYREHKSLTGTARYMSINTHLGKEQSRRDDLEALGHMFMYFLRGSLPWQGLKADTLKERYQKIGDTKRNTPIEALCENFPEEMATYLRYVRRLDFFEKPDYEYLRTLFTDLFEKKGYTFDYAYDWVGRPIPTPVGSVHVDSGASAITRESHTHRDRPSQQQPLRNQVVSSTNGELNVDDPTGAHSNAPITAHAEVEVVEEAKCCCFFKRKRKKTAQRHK
Sequence of PIM2 (Q9P1W9 whole entry): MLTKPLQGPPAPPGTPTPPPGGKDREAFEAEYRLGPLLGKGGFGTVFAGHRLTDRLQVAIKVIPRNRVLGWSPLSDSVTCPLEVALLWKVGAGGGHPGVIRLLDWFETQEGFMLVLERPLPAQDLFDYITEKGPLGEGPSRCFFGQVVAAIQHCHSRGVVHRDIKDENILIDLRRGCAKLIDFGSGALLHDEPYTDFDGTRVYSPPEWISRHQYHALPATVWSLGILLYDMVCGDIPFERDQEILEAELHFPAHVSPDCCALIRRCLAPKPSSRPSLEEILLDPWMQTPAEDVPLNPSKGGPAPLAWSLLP
Sequence of CAMK1G (Q96NX5 whole entry): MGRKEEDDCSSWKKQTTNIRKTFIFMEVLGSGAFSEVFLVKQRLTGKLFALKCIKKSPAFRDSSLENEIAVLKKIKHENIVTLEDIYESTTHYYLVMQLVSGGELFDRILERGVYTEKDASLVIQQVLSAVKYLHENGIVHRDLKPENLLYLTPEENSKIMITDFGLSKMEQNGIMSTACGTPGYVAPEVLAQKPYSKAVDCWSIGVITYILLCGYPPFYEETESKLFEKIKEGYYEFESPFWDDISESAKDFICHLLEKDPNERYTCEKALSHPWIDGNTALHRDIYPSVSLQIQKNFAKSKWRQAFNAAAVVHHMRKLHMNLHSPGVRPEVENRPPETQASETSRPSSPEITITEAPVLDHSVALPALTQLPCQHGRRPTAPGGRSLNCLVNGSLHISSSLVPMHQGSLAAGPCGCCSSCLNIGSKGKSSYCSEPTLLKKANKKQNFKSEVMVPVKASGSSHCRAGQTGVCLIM
Sequence of MAP2K2 (P36507 whole entry): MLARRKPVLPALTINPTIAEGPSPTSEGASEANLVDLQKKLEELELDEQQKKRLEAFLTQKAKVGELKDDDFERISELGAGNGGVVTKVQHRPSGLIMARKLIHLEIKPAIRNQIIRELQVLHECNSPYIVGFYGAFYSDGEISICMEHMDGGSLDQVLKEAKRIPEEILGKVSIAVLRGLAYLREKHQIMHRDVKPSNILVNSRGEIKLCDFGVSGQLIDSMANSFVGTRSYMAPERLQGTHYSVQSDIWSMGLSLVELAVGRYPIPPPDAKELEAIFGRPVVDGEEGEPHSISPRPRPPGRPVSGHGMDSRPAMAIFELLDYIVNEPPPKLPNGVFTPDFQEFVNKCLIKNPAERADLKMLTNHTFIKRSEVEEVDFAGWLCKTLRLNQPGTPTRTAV
Sequence of SRPK3 (Q9UPE1 whole entry): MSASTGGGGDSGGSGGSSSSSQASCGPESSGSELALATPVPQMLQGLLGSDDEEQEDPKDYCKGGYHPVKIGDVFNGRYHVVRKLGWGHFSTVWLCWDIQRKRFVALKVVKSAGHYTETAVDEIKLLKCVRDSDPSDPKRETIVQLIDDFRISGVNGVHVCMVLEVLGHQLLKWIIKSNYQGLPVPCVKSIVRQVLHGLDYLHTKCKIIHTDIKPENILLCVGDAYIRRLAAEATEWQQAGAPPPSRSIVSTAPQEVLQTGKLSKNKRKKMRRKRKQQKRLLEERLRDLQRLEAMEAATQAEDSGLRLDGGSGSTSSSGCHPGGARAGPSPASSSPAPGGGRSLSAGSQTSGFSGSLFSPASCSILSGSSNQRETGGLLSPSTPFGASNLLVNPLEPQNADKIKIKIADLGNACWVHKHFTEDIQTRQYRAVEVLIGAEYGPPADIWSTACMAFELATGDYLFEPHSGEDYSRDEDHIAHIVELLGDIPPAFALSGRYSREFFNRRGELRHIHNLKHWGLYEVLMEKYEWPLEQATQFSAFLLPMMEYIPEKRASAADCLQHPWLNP
Sequence of SLK (Q9H2G2 whole entry): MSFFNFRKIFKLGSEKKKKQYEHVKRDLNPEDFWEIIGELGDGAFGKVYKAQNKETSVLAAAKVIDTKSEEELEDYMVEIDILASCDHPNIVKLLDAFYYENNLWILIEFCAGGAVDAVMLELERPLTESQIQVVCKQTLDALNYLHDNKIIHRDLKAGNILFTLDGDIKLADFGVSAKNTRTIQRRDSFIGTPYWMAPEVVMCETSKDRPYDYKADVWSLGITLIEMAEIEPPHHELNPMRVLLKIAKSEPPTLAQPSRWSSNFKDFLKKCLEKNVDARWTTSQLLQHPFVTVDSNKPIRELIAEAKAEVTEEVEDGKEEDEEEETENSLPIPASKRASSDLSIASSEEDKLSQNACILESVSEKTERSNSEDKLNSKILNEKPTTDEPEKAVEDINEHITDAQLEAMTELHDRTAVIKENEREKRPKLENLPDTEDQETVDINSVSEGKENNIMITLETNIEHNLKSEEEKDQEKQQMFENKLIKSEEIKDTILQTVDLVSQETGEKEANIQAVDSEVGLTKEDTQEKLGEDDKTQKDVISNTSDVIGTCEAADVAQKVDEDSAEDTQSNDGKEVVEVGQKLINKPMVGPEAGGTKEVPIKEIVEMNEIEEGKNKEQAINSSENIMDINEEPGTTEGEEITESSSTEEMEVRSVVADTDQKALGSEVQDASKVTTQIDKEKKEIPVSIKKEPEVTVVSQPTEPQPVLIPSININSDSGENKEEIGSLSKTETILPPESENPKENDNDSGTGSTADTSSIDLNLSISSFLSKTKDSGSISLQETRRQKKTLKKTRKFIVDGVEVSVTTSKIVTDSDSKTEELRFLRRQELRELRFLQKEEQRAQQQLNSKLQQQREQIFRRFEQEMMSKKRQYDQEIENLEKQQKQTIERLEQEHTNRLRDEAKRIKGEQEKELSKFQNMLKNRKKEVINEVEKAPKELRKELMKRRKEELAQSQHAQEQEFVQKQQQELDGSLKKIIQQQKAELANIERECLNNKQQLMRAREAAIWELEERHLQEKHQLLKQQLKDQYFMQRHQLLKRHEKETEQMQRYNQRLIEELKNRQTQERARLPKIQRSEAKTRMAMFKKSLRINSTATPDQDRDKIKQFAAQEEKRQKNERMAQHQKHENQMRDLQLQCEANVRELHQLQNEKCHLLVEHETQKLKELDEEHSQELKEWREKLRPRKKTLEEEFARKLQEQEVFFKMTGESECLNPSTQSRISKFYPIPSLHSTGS
Sequence of STK38L (Q9Y2H1 whole entry): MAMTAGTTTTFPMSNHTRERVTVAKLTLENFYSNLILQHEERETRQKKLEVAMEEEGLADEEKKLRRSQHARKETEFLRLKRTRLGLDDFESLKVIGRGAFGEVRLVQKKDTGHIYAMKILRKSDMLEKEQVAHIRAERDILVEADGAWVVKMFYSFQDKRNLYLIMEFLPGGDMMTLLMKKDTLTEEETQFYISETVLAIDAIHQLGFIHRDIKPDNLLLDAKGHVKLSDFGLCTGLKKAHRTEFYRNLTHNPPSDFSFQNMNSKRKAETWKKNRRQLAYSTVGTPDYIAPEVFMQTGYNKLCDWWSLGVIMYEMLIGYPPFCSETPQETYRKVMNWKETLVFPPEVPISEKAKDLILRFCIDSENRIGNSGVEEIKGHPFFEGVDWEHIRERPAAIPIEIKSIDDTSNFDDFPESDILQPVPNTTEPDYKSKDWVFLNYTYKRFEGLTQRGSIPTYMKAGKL
Sequence of PAK4 (O96013 whole entry): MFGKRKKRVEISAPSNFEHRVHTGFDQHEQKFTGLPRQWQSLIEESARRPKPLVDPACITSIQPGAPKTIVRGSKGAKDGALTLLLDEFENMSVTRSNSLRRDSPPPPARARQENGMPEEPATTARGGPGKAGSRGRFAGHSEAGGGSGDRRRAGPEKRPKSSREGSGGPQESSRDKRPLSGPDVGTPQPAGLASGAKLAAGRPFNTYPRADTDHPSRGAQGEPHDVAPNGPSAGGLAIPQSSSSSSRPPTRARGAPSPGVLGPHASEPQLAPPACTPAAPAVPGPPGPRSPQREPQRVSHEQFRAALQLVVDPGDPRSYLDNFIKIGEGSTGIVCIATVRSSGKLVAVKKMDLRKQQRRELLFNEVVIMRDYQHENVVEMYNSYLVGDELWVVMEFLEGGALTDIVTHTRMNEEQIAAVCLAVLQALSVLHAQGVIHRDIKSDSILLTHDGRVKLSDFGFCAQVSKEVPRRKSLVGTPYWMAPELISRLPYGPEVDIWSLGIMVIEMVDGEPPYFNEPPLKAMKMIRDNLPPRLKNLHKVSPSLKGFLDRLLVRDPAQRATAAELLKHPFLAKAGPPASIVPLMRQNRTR

CC(=O)c1cccc(-c2cnc3ccc(NCC4CC4)nn23)c1 [compound 1, K00135]
ΔTm inhibitor 1 (BMX): 0.4 °C | ΔTm inhibitor 1 (SRPK3): 0.4 °C | ΔTm inhibitor 1 (PIM3): 6.8 °C | ΔTm inhibitor 1 (PIM2): 4.7 °C | ΔTm inhibitor 1 (PHKG2): 1.7 °C | ΔTm inhibitor 1 (MAP2K2): 2 °C | ΔTm inhibitor 1 (STK16): 2.3 °C | ΔTm inhibitor 1 (SLK): 2.3 °C | ΔTm inhibitor 1 (CSNK2A2): 3.3 °C | ΔTm inhibitor 1 (PKMYT1): 0.9 °C | ΔTm inhibitor 1 (PAK4): 1.5 °C | ΔTm inhibitor 1 (STK10): 3.3 °C | ΔTm inhibitor 1 (CSNK1G1): 1.7 °C | ΔTm inhibitor 1 (STK38L): 0.4 °C | ΔTm inhibitor 1 (CAMK1G): 0.6 °C | ΔTm 1 (STK33): 3.1 °C

CCN1/C(=C/C(C)=O)Sc2ccc(OC)cc21 [compound 2, TG003]
ΔTm inhibitor 2 (BMX): -0.1 °C | ΔTm inhibitor 2 (SRPK3): 0.0 °C | ΔTm inhibitor 2 (PIM3): 4.9 °C | ΔTm inhibitor 2 (PIM2): 3.6 °C | ΔTm inhibitor 2 (PHKG2): 0.2 °C | ΔTm inhibitor 2 (MAP2K2): 0.5 °C | ΔTm inhibitor 2 (STK16): 0.2 °C | ΔTm inhibitor 2 (SLK): -0.5 °C | ΔTm inhibitor 2 (CSNK2A2): 2.6 °C | ΔTm inhibitor 2 (PKMYT1): -0.6 °C | ΔTm inhibitor 2 (PAK4): 1.7 °C | ΔTm inhibitor 2 (STK10): 0.8 °C | ΔTm inhibitor 2 (CSNK1G1): 3.2 °C | ΔTm inhibitor 2 (STK38L): 0.3 °C | ΔTm inhibitor 2 (CAMK1G): -0.1 °C | ΔTm 2 (STK33): 0.6 °C

Nc1nccc(-c2ccc3noc(-c4ccc(Cl)cc4)c3c2)n1 [compound 4, K00972]
ΔTm inhibitor 4 (BMX): 0.4 °C | ΔTm inhibitor 4 (SRPK3): 0.2 °C | ΔTm inhibitor 4 (PIM3): 5.4 °C | ΔTm inhibitor 4 (PIM2): 2.1 °C | ΔTm inhibitor 4 (PHKG2): 1.7 °C | ΔTm inhibitor 4 (MAP2K2): 0.1 °C | ΔTm inhibitor 4 (STK16): 3.5 °C | ΔTm inhibitor 4 (SLK): 0.5 °C | ΔTm inhibitor 4 (CSNK2A2): 0.9 °C | ΔTm inhibitor 4 (PKMYT1): 0.1 °C | ΔTm inhibitor 4 (PAK4): 1.5 °C | ΔTm inhibitor 4 (STK10): 1.9 °C | ΔTm inhibitor 4 (CSNK1G1): 1.0 °C | ΔTm inhibitor 4 (STK38L): 0.9 °C | ΔTm inhibitor 4 (CAMK1G): 0.3 °C | ΔTm 4 (STK33): 2.4 °C
